Here are results for 2 compounds from patent publication US11319344B2, “Non-membrane disruptive P53 activating stapled peptides” (AGENCY FOR SCIENCE, TECHNOLOGY AND RESEARCH, priority 2015, dated 2022).

Data set [1] relates to p53 transcriptional activity in T22 cells. Nature of the data set: T22 p53 β-galactosidase based reporter assay. The class given is cell-based, murine. To be noted: for IC50: T22 p53 reporter assay, 18 h. The method, then:
The YS-01/04 peptides were screened in a murine T22-derived p53 reporter assay, either with or without fetal calf serum, to assess their ability to induce p53 transcriptional activity in intact cells (Table 1 and FIG. 3).
T22 cells, which were stably transfected with a p53 responsive β-galactosidase reporter, were seeded into 96-well plate at a cell density of 8000 cells per well. Cells were also maintained in Dulbecco's Minimal Eagle Medium (DMEM) with 10% fetal bovine serum (FBS) and penicillin/streptomycin. […] Measurements were carried out using a Safire II multiplate reader. Experiments were carried out independently twice.
(In a reporter assay the amount or activity of a reporter protein is the signal.)

A further data set deals with T22 cells. Nature of the data set: Lactate dehydrogenase release assay, T22 cells. The class given is cell-based. The note with it: 2 h, serum free. As for the experimental part:
(§1) The stapled YS-01/04 peptides were also screened for their ability to perturb the cell membrane wall of T22 and ARN8 cells and release cytosolic lactate dehydrogenase (LDH). An effect that is regarded as undesirable as this may indicate that the peptide is non-specifically toxic to different cell types. A short 2 hour time treatment period is used for this assay as it is assumed that perforation of the cell membrane occurs […] for cell programmed death. […] The lactate dehydrogenase leakage measured was much greater in ARN8 cells than T22 cells, showing that different cells vary in their sensitivities to the membrane disruptive properties of YS-03. […] This implies that p53 activation, which is also supported by the data for YS-04, does occur in the absence of membrane disruption and that the biological activity observed for is not a direct consequence of cellular toxicity.
(§2) T22 cells or ARN8 cells, both of which were stably transfected with a p53 responsive β-galactosidase reporter, were seeded into a 96-well plate at a cell density of 5000 cells per well. Cells were also maintained in Dulbecco's Minimal Eagle Medium (DMEM) with 10% fetal bovine serum (FBS) and penicillin/streptomycin. The cells were incubated for 24 hours and then treated with compounds/peptide for 2 hours in DMEM with or without 10% FBS. Cytosolic lactate dehydrogenase release was detected using the non-radioactive cytotoxicity Assay kit (Promega) as per manufacturer's instructions. Measurements were carried out using an Envision multiplate reader.

The test system of the next data set is ARN8 cells. Nature of the data set: Lactate dehydrogenase release assay, ARN8 cells. The class given is cell-based. The note with it: 2 h, serum free. As for the experimental part: as §1, §2
For data set [2], the system named is p53 transcriptional activity in ARN8 cells. Description: ARN8 β-galactosidase based p53 reporter assay. The class given is cell-based, Human. To be noted: serum free, 18 h. The method, then: ARN8 cells contain the same β-galactosidase gene under the control of a p53 promoter that is stably transfected into T22 cells. […] The YS-07 and YS-09 titrations were again repeated and the lactate dehydrogenase leakage from ARN8 cells measured instead (FIGS. 8c and 8d).
ARN8 cells, which were stably transfected with a p53 responsive β-galactosidase reporter, were seeded into 96-well plate at a cell density of 8000 cells per well. Cells were also maintained in Dulbecco's Minimal Eagle Medium (DMEM) with 10% fetal bovine serum (FBS) and penicillin/streptomycin. […] Measurements were carried out using a Safire II multiplate reader. Experiments were carried out independently twice.

For data set [3], the system named is p53 and Mdm2 protein levels in T22 cells. Description: T22 western blot analysis of p53 and Mdm2 protein levels. The class given is cell-based, Murine. The note with it: 25 μM and 50 μM, 18 h, with or without fetal calf serum. From the text:
The YS-01/04 peptides were screened in a murine T22-derived p53 reporter assay, either with or without fetal calf serum, to assess their ability to induce p53 transcriptional activity in intact cells (Table 1 and FIG. 3). […] Considering the similar affinities that these peptides have for Mdm2, the difference in their IC50 values must reflect a change in their ability to enter the cell. This difference is observed for both sets of peptides (YS-01 and YS-02, YS-03 and YS-04, FIG. 3), which implies that the hydroxyl group of the C-terminal Y30 is responsible for the reduced efficiency of intracellular uptake. p53 and Mdm2 protein levels were then directly probed using western blot analysis. T22 cells were treated with 25 μM and 50 μM of YS-03 either with or without the presence of fetal calf serum (FIG. 4).
T22 Murine cells were seeded into 12 well plates at a cell density of 150000 cells per well and incubated overnight. Cells were also maintained in DMEM media with 10% fetal bovine serum (FBS) and penicillin/streptomycin. Cells were treated with various compounds/vehicle controls at the time points and concentrations indicated either in DMEM media with or without 10% FBS. Cells were rinsed with PBS and then harvested in 50 μl of 1×NuPAGE LDS sample buffer (NP0008). […] Protein concentrations were measured by BCA assay. […]
A general note: In western blotting, separated proteins are transferred to a membrane and probed.

The nature of data set [4]: Circular dichroism spectroscopy (helicity in solution). The class given is physicochemical. The note with it: peptide unbound in solution.
The target in data set [5] is N-terminal domain of Mdm2 (1-125) (Homo sapiens, UniProt Q00987). Description: Competitive fluorescence anisotropy titration (apparent Kd). The note with it: ratio to YS-01/YS-02 Kd.
Experimental: In this assay, a N-terminally FAM labelled peptide of the sequence [sequence]
The cells expressing the Mdm2 GST fusion construct were grown in LB medium at 37° C. to an OD600 of ˜0.6 and induction was carried out with 1 mM isopropyl β-D-1-thiogalactopyranoside (IPTG) at room temperature. Cells were harvested by centrifugation and the cell pellets were resuspended in 50 mM Tris pH 8.0, 10% sucrose and then sonicated. The sonicated sample was centrifuged for 60 minutes at 17,000 g at 4° C. […] The column was then further washed by 6 volumes of wash buffer. Mdm2 were then purified from the column by cleavage with PreScission protease. 10 units of PreScission protease, in one column volume of PBS with 1 mM DTT buffer, were injected onto the column. The cleavage reaction was allowed to proceed overnight at 4° C. The cleaved protein was then eluted of the column with wash buffer. Protein fractions were analysed with SDS-PAGE and concentrated using a Centricon (3.5 kDa molecular weight cut-off (MWCO)) concentrator. The Mdm2 protein sample was then dialyzed into a buffer solution containing 20 mM Bis-Tris, pH 6.5, 0.05M NaCl with 1 mM DTT and loaded onto a monoS column pre-equilibrated in buffer A (20 mM Bis-Tris, pH 6.5, 1 mM DTT). The column was then washed in 6 column volumes of buffer A and bound protein was eluted with a linear gradient of 1M NaCl over 25 column volumes. Protein fractions were analysed with sodium dodecyl sulfate-polyacrylamide gel electrophoresis (SDS-PAGE) and concentrated using a Centricon (3.5 kDa molecular weight cut-off (MWCO)) concentrator.
Apparent dissociation constant (Kd) values were determined for a variety of molecules via competitive fluorescence anisotropy experiments. […] The competing molecules were then titrated against the complex of the FAM labelled peptide and protein. Apparent dissociation constant (Kd) values were determined by fitting the experimental data to the equations shown below:
[L]st and [L]t denote labelled ligand and total unlabelled ligand input concentrations, respectively. Kd2 is the dissociation constant of the interaction between the unlabelled ligand and the protein. In all competitive types of experiments, it is assumed that [P]t>[L]st, otherwise considerable amounts of free labelled ligand would always be present and would interfere with measurements. […] The FAM-labelled peptide was dissolved in dimethyl sulfoxide (DMSO) at 1 mM and diluted into experimental buffer. Readings were carried out with a Envision Multilabel Reader. […] All titrations were carried out in triplicate. Curve-fitting was carried out using Prism 4.0 (GraphPad). […]
The mark [6] stands for this setting: absence of serum, read-out: T22 IC50 (0% μM).
The mark [7] stands for this setting: presence of 10% fetal calf serum, read-out: T22 Ic50 (10% μM).

Where two headings read alike, the source gives them in different places.

As a reminder, the IC50 is the concentration needed to halve the response being measured.

N-terminal domain of Mdm2 (1-125), sequence (Q00987 1-125): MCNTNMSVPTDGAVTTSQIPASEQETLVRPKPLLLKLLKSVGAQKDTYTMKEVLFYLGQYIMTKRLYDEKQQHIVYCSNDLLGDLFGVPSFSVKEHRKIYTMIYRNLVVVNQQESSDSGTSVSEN

In the case of `CC(=O)N[C@H](C(=O)N[C@@H](CO)C(=O)N[C@@H](Cc1ccccc1)C(=O)N[C@]1(C)CCCCCCC=CCCC[C@@](C)(C(N)=O)NC(=O)[C@H](CC(C)C)NC(=O)[C@H](CC(C)C)NC(=O)[C@H](C)NC(=O)[C@H](Cc2c[nH]c3ccccc23)NC(=O)[C@H](Cc2ccc(O)cc2)NC(=O)[C@H](CCC(=O)O)NC1=O)[C@@H](C)O` [sMTide-02, Ac-TSFX8EYWALLS5-NH2, reference compound], the IC50 in data set [1] (setting [6]) turned out to be 2.75 µM; in data set [1] (setting [7]) it was 17.9 µM. Also, the “cytosolic lactate dehydrogenase (LDH) release” value is on record as “significant amounts of lactate dehydrogenase leakage” with T22 cells and “large amounts of lactate dehydrogenase leakage” in the data set with ARN8 cells. Besides, the “p53 activation (β-galactosidase activity) in ARN8 cells” value in data set [2] is “poorly induces p53 activity”.

Regarding `CC(=O)N[C@H](C(=O)N[C@@H](CO)C(=O)N[C@@H](Cc1ccccc1)C(=O)NC1(C)CCCCCCC=CCCCC(C)(C(=O)N[C@@H](CCC(=O)O)C(=O)N[C@@H](CC(N)=O)C(=O)N[C@@H](Cc2ccccc2)C(N)=O)NC(=O)[C@H](CC(C)C)NC(=O)[C@H](CC(C)C)NC(=O)[C@H](C)NC(=O)[C@H](Cc2c[nH]c3ccccc23)NC(=O)[C@H](Cc2ccc(O)cc2)NC(=O)[C@H](CCC(=O)O)NC1=O)[C@@H](C)O` (some centres unmarked) [YS-03, Ac-^17TSFX8EYWALLS5ENF^30-NH2], the IC50 in data set [1] (setting [6]) amounted to 4.57 µM; in data set [1] (setting [7]), 54.7 µM. In addition, the “ability to induce p53 activity in T22 reporter assay” value in data set [1] (with and without serum) was “greater potency in the T22 assay than YS-01 and YS-02”. Moreover, the “p53 and Mdm2 protein levels (western blot)” value in data set [3] is “induction of p53 and Mdm2 protein levels”. Further, in data set [4], the “helicity in solution (CD spectra)” value is “significantly more helical in character in solution than YS-01 and YS-02”. Further, in data set [5], the “Kd weaker than the i,i+4 analogue peptides (YS-01 and YS-02)” value is “approximately 2 fold”.
